Assay results taken from publication PMC4830539, “Chemical Inhibition of Histone Deacetylases 1 and 2 Induces Fetal Hemoglobin through Activation of GATA2” (PLoS ONE, 2016).

Legend:
[1] = tested on: histone acetylation at GATA2 regulatory regions; assay: ChIP-QPCR of histone acetylation at GATA2 regulatory regions; assay type: cell-based, human; conditions: -1.8 kb GATA2 regulatory region, 1 μM
Protocol: Cells were fixed in 1% formaldehyde for 15 minutes at room temperature. Crosslinking reaction was extinguished by adding glycine to 125 mM. Cells were washed three times in PBS, 0.5% lgepal CA-630, 1 mM phenylmethanesulfonyl fluoride (PMSF). Cell pellets were snap frozen on dry ice and stored at -80°C.
For ChIP-QPCR experiments, chromatin (11 μg) from vehicle (n = 1) or ACY-957 (n = 1) treated cells was fragmented by sonication, then immunoprecipitated (n = 3, each) using antibodies against histone H3 lysine 9 acetylation (3 μg, ab10812, Abcam), histone H2B lysine 5 acetylation (6 μL, ab40886, Abcam), histone H3 lysine 27 acetylation (3 μg, ab4729, Abcam), or GATA2 (6 μg, SC-9008, Santa Cruz). Specific genomic regions within immunoprecipitated and input DNA was detected using SYBR green QPCR with the following primer pairs:
To investigate how HDAC1/2 inhibition drives GATA2 activation, we performed a series of chromatin immunoprecipitation (ChIP) experiments. BM cells were expanded in CS1, and then shifted to CS1 differentiation media in the presence of vehicle or 1 μM ACY-957 for several days, yielding erythroid progenitor cells with TFRC/GYPA differentiation profiles similar to those used for GeneChip experiments and unaffected by compound treatment (Fig 8A and 8B). […]

HBG mRNA = HBG mRNA (%) by QPCR in differentiating BM cells (CS1, CS2); assay type: cell-based, human
Protocol: CD34+ cells isolated from human bone marrow of healthy normal donors (Lonza, AllCells, or StemCell Technologies), referred to as BM cells throughout this work, were cultured using two distinct 2-phase culture systems. These systems have been described previously and are referred to as Culture System 1 (CS1) and Culture System 2 (CS2) throughout this work. CS1 expansion media is StemSpan SFEM (StemCell Technologies) supplemented with CC100 (StemCell Technologies), 100 U/mL penicillin and 100 μg/mL streptomycin. CC100 is a mix of Flt-3 ligand (FLT3LG), KIT ligand (KITLG), interleukin-3 (IL3), and interleukin-6 (IL6). CS1 differentiation media is StemSpan SFEM supplemented with 1 U/ml erythropoietin (EPO), 5 ng/mL IL3, 20 ng/mL KITLG, 2 μM dexamethasone, 1 μM beta-estradiol, 100 U/mL penicillin and 100 μg/mL streptomycin. CS2 expansion media is StemSpan SFEM supplemented with 1% glutamine, 40 μg/mL lipids (Sigma), 100 ng/mL KITLG, 10 ng/mL IL3, and 0.5 U/mL EPO. CS2 differentiation media is same as CS2 expansion media, except 3 U/mL EPO.
Globin mRNA was detected using quantitative real time PCR (QPCR). Total RNA was isolated using RNeasy Micro Kit (Qiagen) with on-column DNase digestion, converted into cDNA using the High Capacity RNA-to-cDNA Kit (Life Technologies), diluted 5-fold with water, and 1 μL used as a template for QPCR. The percent of each β-like globin transcript was determined using the absolute standard curve method. Briefly, DNA corresponding to the full length transcript for each globin isoform was cloned into […] plasmid (GenScript, Piscataway NJ). Each plasmid was validated against each QPCR probe to ensure specificity. Plasmids were pooled at equal molar concentration and a dilution series spanning 8-logs was utilized as the standard curve. Throughout this work, ‘HBG mRNA (%)’ and ‘percent HBG mRNA’ refers to the abundance of HBG mRNA expressed relative to the sum of the abundances of all β-like globin transcripts, i.e. [HBG/(HBB+HBD+HBG+HBE)]*100. In cases where the transcript of interest was compared against the housekeeping gene ACTB, the comparative Ct ([…]) method was utilized. Probes used for QPCR: HBB (Hs00747223_g1), HBD (Hs00426283_m1), HBG (Hs00361131_g1, detects both HBG1 and HBG2), HBE (Hs00362215_g1), GATA1 (Hs01085823_m1), GATA2 (Hs00231119_m1), KLF1 (Hs00610592_m1), MYB (Hs00920556_m1), SOX6 (Hs00264525_m1), BCL11A (Hs01093197_m1), and ACTB (Hs99999903_m1).
To evaluate the ability of ACY-957 to activate HBG, we utilized two distinct 2-phase culture systems, referred to as CS1 [24] and CS2 [21], to derive erythroid progenitors and erythroblasts from CD34+ human bone marrow cells (BM cells). […]

HDAC2 = HDAC2 (Homo sapiens, UniProt Q92769); assay: Cellular HDAC2 inhibition (HDAC-Glo 2 Kit) in BM cells; assay type: cell-based; design: endogenous in cells; host or cells: primary human bone marrow (BM) cells expanded in CS1 media; conditions: CS1 expansion media 6 days, then 48 hours with compound, n = 6
HDAC2, sequence (Q92769 whole entry): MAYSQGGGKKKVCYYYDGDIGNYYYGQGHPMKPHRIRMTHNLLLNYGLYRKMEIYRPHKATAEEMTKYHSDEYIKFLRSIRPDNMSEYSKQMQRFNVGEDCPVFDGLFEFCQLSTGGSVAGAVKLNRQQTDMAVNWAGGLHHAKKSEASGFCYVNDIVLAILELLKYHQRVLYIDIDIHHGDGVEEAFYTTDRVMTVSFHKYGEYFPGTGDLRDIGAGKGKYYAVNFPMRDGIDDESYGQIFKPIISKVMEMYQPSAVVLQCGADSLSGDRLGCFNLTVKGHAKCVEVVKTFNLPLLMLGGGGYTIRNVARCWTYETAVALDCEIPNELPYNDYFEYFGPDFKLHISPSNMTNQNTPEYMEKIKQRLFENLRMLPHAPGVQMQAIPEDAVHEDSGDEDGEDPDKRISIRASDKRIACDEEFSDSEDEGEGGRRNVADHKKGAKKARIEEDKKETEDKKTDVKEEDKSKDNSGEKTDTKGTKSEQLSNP
Protocol: The HDAC-Glo 2 Kit (Promega) was used for in vivo HDAC2 inhibition assays [27, 28]. First, BM cells were expanded in CS1 for 6 days. Next, 25000 cells in 25 μL of CS1 expansion media was placed in a 384-well plate in the presence of compound. Cells were cultured for an additional 48 hours, followed by luminescence detection in the lytic format as described by the manufacturer’s protocol.

IC50 (HDAC2): 304 nM
Compound: Nc1ccc(-c2cccs2)cc1NC(=O)c1ccc2nc(N3CCNCC3)ccc2c1 [ACY-957]
maximum increases in histone acetylation (H3K9ac, H2BK5ac, H3K27ac) [1]: 4- to 8 fold
HBG mRNA (%) (HBG mRNA; CS1, day 5, 1 μM): 35%
each β-like globin mRNA relative to ACTB (HBG mRNA; CS1 and CS2, 1 μM): significantly increased levels of HBE and HBG mRNA and decreased levels of HBD and HBB mRNA
increase of HBG level over vehicle treated controls (HBG mRNA; CS1 and CS2, day 5, 1 μM): approximately 3.5 fold
HBG mRNA (%) (HBG mRNA; CS2, day 5, 1 μM): 24%
